Results on 7 molecules are retold here after patent US10828315B2 (Madrigal Pharmaceuticals, Inc., priority 2013, dated 2020).

SMILES strings stand for the structures.

As a reminder, the IC50 is the concentration that gives 50% inhibition. Low readings indicate greater potency in that assay, high ones weaker potency in that assay.

Series [1] has as its system HER2. Briefly: HER2 degradation assay with BT-474 cell line (Example 12, FACS). The series is classed as cell-based, human. The text has this: HER2 has emerged as a key target for anticancer drugs due to its intrinsic involvement in the phosphatidylinositol-3-kinase-Akt/protein kinase B (PI3K-Akt) and the mitogen-activated protein kinase (MAPK) pathways, both of which suppress apoptosis and promote tumor cell survival, gene transcription, angiogenesis, cellular proliferation, migration, mitosis, and differentiation. The degradation of HER2 is a measure of efficacy of anticancer therapeutics that target Hsp90. Accordingly, the SDC-TRAP molecules of the invention that comprise a binding moiety that binds Hsp90 were tested in the following HER2 degradation assay.
BT-474 cells (human breast cancer cell line ATCC HTB-20) were obtained from ATCC and seeded into 12-well tissue culture plates at 0.2×10^6/1.8 mL/well. […] Each test compound was titrated in 4-fold dilutions from 5 μM to 78 nM with DMSO and 200 μL of the titration was added to each well of the cell plate. The DMSO final concentration was 0.2%. Cells were incubated overnight at 37° C. in 5% CO2.
Media was decanted from the plate, cells were washed 1× in PBS. 400 μL trypsin (EDTA) per well was added, and the cells were incubated for 2 to 3 minutes. Cells were collected into FACS tubes containing 1 ml culture medium to neutralize the trypsin and were centrifuged for 5 minutes at 1200 rpm. Supernatant was decanted and the cells were resuspended in 5 μL FITC (anti HER2/nu)/200 μL staining buffer (1×PBS+1% FBS+0.05% Sodium Azide)/tube. Controls were 5 μL IgG isotype control and staining buffer only. Tubes were incubated for 30 minutes in the dark at room temperature. 1 mL staining buffer was added to each tube and the tubes were centrifuged for 6 minutes at 1200 rpm. The supernatant was decanted and 300 μL staining buffer was added to each tube, which was store at 4° C. fpr FACS (cytometer) analysis. The cytometer readout was normalized and the potency of each compound is evaluated with IC50 calculated with XLfit™ software.

The nature of series [2]: Mouse plasma stability protocol, up to 1 h (Examples 16-18). As to conditions: for % Remaining (1 h): % Remaining of parent after 1 h incubation in mouse plasma at 37° C. (10 μM).

With `CCc1c2c(nc3ccc(OC(=O)N4CCC(N5Cc6ccc(-n7c(O)nnc7-c7cc(C(C)C)c(O)cc7O)cc6C5)CC4)cc13)-c1cc3c(c(=O)n1C2)COC(=O)[C@]3(O)CC` [SDC-TRAP-0089, (S)-4,11-diethyl-4-hydroxy-3,14-dioxo-3,4,12,14-tetrahydro-1H-pyrano[3′,4′:6,7]indolizino[1,2-b]quinolin-9-yl 4-(5-(3-(2,4-dihydroxy-5-isopropylphenyl)-5-hydroxy-4H-1,2,4-triazol-4-yl)isoindolin-2-yl)piperidine-1-carboxylate], the midpoint of inhibition in series [1], the IC50, lay at 1.47 µM. On the same count and under the same terms, under `CCc1c2c(nc3ccc(OC(=O)N4CCC(CCc5ccc(-n6c(O)nnc6-c6cc(C(C)C)c(O)cc6O)cc5)CC4)cc13)-c1cc3c(c(=O)n1C2)COC(=O)[C@]3(O)CC` [SDC-TRAP-0086, (S)-4,11-diethyl-4-hydroxy-3,14-dioxo-3,4,12,14-tetrahydro-1H-pyrano[3′,4′:6,7]indolizino[1,2-b]quinolin-9-yl 4-(4-(3-(2,4-dihydroxy-5-isopropylphenyl)-5-hydroxy-4H-1,2,4-triazol-4-yl)phenethyl)piperidine-1-carboxylate] stands > 5 µM; under `CCc1c2c(nc3ccc(OC(=O)NCCOCCn4ccc5cc(-n6c(O)nnc6-c6cc(C(C)C)c(O)cc6O)ccc54)cc13)-c1cc3c(c(=O)n1C2)COC(=O)C3(O)CC` (centres unmarked) [SDC-TRAP-0016, 4,11-diethyl-4-hydroxy-3,14-dioxo-3,4,12,14-tetrahydro-1H-pyrano[3′,4′:6,7]indolizino[1,2-b]quinolin-9-yl (2-(2-(5-(3-(2,4-dihydroxy-5-isopropylphenyl)-5-hydroxy-4H-1,2,4-triazol-4-yl)-1H-indol-1-yl)ethoxy)ethyl)carbamate], > 5 µM; under `CCc1c2c(nc3ccc(O)cc13)-c1cc3c(c(=O)n1C2)COC(=O)[C@@]3(CC)OC(=O)N(C)CCN1CCN(Cc2ccc(-n3c(O)nnc3-c3cc(C(C)C)c(O)cc3O)cc2)CC1` [SDC-TRAP-0087, (S)-4,11-diethyl-9-hydroxy-3,14-dioxo-3,4,12,14-tetrahydro-1H-pyrano[3′,4′:6,7]indolizino[1,2-b]quinolin-4-yl (2-(4-(4-(3-(2,4-dihydroxy-5-isopropylphenyl)-5-hydroxy-4H-1,2,4-triazol-4-yl)benzyl)piperazin-1-yl)ethyl)(methyl)carbamate], 0.535 µM.

As to `CCNC(=O)c1nnc(-c2cc(C(C)C)c(O)cc2O)n1-c1ccc(CN2CCC(C(=O)N3CCC(C(=O)OC4(CC)C(=O)OCc5c4cc4n(c5=O)Cc5c-4nc4ccc(O)cc4c5CC)CC3)CC2)cc1` (centres unmarked) [SDC-TRAP-0076, 4,11-diethyl-9-hydroxy-3,14-dioxo-3,4,12,14-tetrahydro-1H-pyrano[3′,4′:6,7]indolizino[1,2-b]quinolin-4-yl 1-(1-(4-(3-(2,4-dihydroxy-5-isopropylphenyl)-5-(ethylcarbamoyl)-4H-1,2,4-triazol-4-yl)benzyl)piperidine-4-carbonyl)piperidine-4-carboxylate], the “% Remaining (1 h)” value in series [2] is reported as 96.0%. Moreover, the “% Remaining (1 h, 37° C.)” value in series [2] (mouse plasma, 1 h, 37° C.) is 96%. Regarding `CCc1c2c(nc3ccc(OC(=O)N4CCC(N(C)CCNC(=O)c5nnc(-c6cc(C(C)C)c(O)cc6O)n5-c5cccnc5)CC4)cc13)-c1cc3c(c(=O)n1C2)COC(=O)C3(O)CC` (centres unmarked) [SDC-TRAP-0358], the “% Remaining (1 h)” value in series [2] was 41.0%.

In the case of `CCc1c2c(nc3ccc(OC(=O)N4CCC(N5CCC(CCn6ccc7ccc(-n8c(O)nnc8-c8cc(C(C)C)c(O)cc8O)cc76)CC5)CC4)cc13)-c1cc3c(c(=O)n1C2)COC(=O)C3(O)CC` (centres unmarked) [SDC-TRAP-0353, 4,11-diethyl-4-hydroxy-3,14-dioxo-3,4,12,14-tetrahydro-1H-pyrano[3′,4′:6,7]indolizino[1,2-b]quinolin-9-yl 4-(2-(6-(3-(2,4-dihydroxy-5-isopropylphenyl)-5-hydroxy-4H-1,2,4-triazol-4-yl)-1H-indol-1-yl)ethyl)-[1,4′-bipiperidine]-1′-carboxylate], the “% Remaining (1 h)” value in series [2] is on record as 22.5%.
